“Also recorded” adds a separate entry of the source.
Experiments:
P2X7 receptor = conditions: cited from earlier work
[1] = system: DMBA/TPA-induced skin papillomas and squamous spindle-cell carcinomas; assay: DMBA/TPA mouse skin papilloma and cancer model, 28 weeks (Experiment-4); assay type: in vivo
[2] = system: human normal keratinocytes; assay: Apoptosis in cultured human normal keratinocytes; assay type: cell-based; conditions: BzATP 100 μM with ATP 1 μM or 250 μM
Description: Primary cultures of human normal keratinocytes were generated from discarded foreskins. […] Apoptosis may be quantified in terms of percent solubilized DNA (Wang et al, 2004a), or by using the commercial cell-death detection ELISA kit (Roche Applied Science, Nutley, N.J.) (Feng et al, 2006).

hEVEC cells = assay: Apoptosis in hEVEC cells; assay type: cell-based, human
mouse skin [3] = assay: Local BzATP on normal mouse dorsal skin, 4 weeks (tolerability, apoptosis); assay type: in vivo
Protocol: BzATP (100 μM in 200 μl [20 nmol, 14.3 μg, 1.0 μg/cm^2]), was applied twice weekly for 4 weeks on the posterior region of the shaved dorsal skin. The concentration/dose of BzATP and frequency of treatments were chosen based on the above discussed cell culture data. Each animal served as its own control by having vehicle-containing solution applied twice weekly for 4 weeks on the anterior region of the shaved dorsal skin.
(§1) TUNEL assays in tissues cross sections were performed using DeadEnd™ Fluorometric TUNEL System (Promega, Madison, Wis.) according to the manufacturer's protocol. For TUNEL-P2X7 co-staining, tissue cross sections were first assayed for TUNEL, followed by P2X7 immunostaining.
(§2) Experiments using mice were done according to an approved CWRU IACUC IRB protocol [2006-0141]. Experiments utilized 6-8 weeks old FVB female mice (obtained from Charles River, Wilmington, Mass.). The animal's dorsal skin (about 3×5 cm) was shaved using Oster animal clipper (Mountain Home, Ark.) followed by weekly application of Nair® hair remover lotion. Treatments included the application of one or more of the following drugs, directly onto the shaved dorsal skin: DMBA (50 μg/200 μl acetone [950 μM, 190 nmol, 3.3 μg/cm^2]); TPA (3 μg/200 μl acetone [20 μM, 4 nmol, 0.2 μg/cm^2]); BzATP (14.3 μg/200 μl of 2.3/1 vol/vol solution of propylene-glycol [PG]/ethanol [EtOH][100 μM, 20 nmol, 1.0 μg/cm^2]); or the BzATP vehicle only (200 μl of PG/EtOH). DMBA was applied once, while TPA and BzATP were applied twice a week. Skin neoplasia in the mice were induced by the “Two-Step” method, which involved tumor initiation by local treatment with 7,12-dimethylbenz(a)anthracene (DMBA), followed by tumor promotion with local treatment of 12-O-tetradecanoylphorbol-13-acetate (TPA). Guo et al., “Disruption of EphA2 receptor tyrosine kinase leads to increased susceptibility to carcinogenesis in mouse skin” Cancer Res 2006, 66:7050-7058. The concentration/dose of BzATP and frequency of treatments were chosen based on data in cultured cells (supra).
The shaved dorsal skin was divided into two equal anterior and posterior areas. Each animal was treated with BzATP applied locally twice a week for […] on the anterior skin area; vehicle only was applied in parallel twice a week for 4 weeks on the posterior skin area. At the end of the experiment animals were euthanized by cervical dislocation and dorsal skin strips were obtained from each animal from the anterior and posterior skin areas for microscopic H&E tissue evaluation and P2X7 immunostaining.

[4] = system: cancer ectocervical, endocervical, endometrial cells and cancer keratinocytes; conditions: fold lesser apoptosis after BzATP; cited from earlier work
mouse skin [5] = assay: Local BzATP on normal mouse dorsal skin, 16 weeks (safety, TUNEL, Ki67); assay type: in vivo
Protocol: BzATP was applied locally twice a week on the surface of the shaved dorsal skin for a total of 16 weeks. The control group included mice that had their back shaved and were treated only with the vehicle. […] See, FIGS. 14A & 14C versus FIGS. 14B & 14D, respectively.
Image-analysis of immunofluorescence data was described (Li et al, 2007). Representative fields were captured and saved in Adobe Photoshop. Pictures were scanned using UN-SCAN-IT (Silk Scientific, Orem Utah) by choosing 3-5 representative fields for each picture. Light intensity in each field was digitized and average pixel density per field was determined using the program software.
as §1, §2
From each animal blood samples were obtained from the retro-bulbar venous complex for ALT (SGPT) and AST (SGOT) assays. In addition, dorsal skin strips were obtained from each animal for microscopic H&E tissue evaluation, Ki67 immunostaining, and in-situ detection of DNA fragmentation by the TUNEL method.
Assays used Liquid ALT and Liquid AST reagent sets (Cat # A7526-150a and A7561-150, respectively) obtained from Pointe Scientific (Canton Mich.), and were performed according to the supplier instructions.

[6] = system: mouse wild-type keratinocytes; assay: Cytosolic calcium (Fluo-4) in mouse wild-type keratinocytes; assay type: cell-based
Protocol: FIG. 17A: Time course of changes in cytosolic calcium (ΔCa^2+i), in medium containing 1.2 mM Ca^2+ (upper trace) or 1.2 mM Ca2+ plus 1.2 mM EGTA (lower trace).
FIG. 17C: Dose response profile comparison between ΔCa^2+i and Eth-Br influx. Cells were treated with each BzATP concentration for […]. Levels of ΔCa^2+i (empty circles) were determined 2 min after adding BzATP; changes in Eth-Br fluorescence (filled circles) were determined 5 min after adding BzATP. Values=means±SD. Experiments were repeated 3 times. AU=arbitrary units.
Changes in Ca^2+i in cultured cells were determined in terms of changes in intracellular Fluo-4 fluorescence using dynamic confocal laser scanning microscopy. Cultured mouse keratinocytes were loaded with 5 μM Fluo-4/AM, and imaged with a Zeiss LSM 510 inverted real-time confocal microscope. Images were collected at 488 nm/505 nm (exc/emi) at intervals of 10 to 15 seconds after treatment with 100 μM BzATP, added to the perfusate. For ethidium bromide influx experiments, glass-bottomed dishes cultured with mouse keratinocytes were placed in the microscope. Images (collected at 488 nm/505 nm [exc/emi]) were taken before, and at intervals of 30 seconds after adding 5 μM ethidium bromide to the perfusate as described. Average fluorescence intensity was quantified from collated images using MetaVue software (Fryer Company Inc., Huntley, Ill.) by subtracting the basal intensity value.

For `Nc1ncnc2c1ncn2[C@@H]1O[C@H](COP(=O)(O)OP(=O)(O)OP(=O)(O)O)[C@@H](OC(=O)c2ccc(C(=O)c3ccccc3)cc2)[C@H]1O` [BzATP, 3′-O-(4-benzoylbenzoyl)adenosine triphosphate], the EC50 (P2X7 receptor) is given as 35 µM, the “potency at the P2X7 receptor relative to ATP” value (P2X7 receptor; greater potency than ATP) is given as 5-10 fold and the “inhibition of papilloma and skin cancer formation” value ([1]; 1 μg/cm^2 BzATP applied locally twice weekly) is given as 50%. For the same compound, the “effect on P2X7 receptor expression in skin cancers” value ([1]; immunoreactivity in cross sections) was “did not effect P2X7 receptor expression in cancer cells”, the “overall survival rates versus DMBA/TPA group” value ([1]; log-rank test) was “did not differ statistically” and the “TUNEL staining in papillomas and cancer tissues versus DMBA/TPA group” value ([1]; mouse, in vivo) was “more intense”. The “development of cancerous lesions (time-to-event) versus DMBA/TPA group” value ([1]; mouse, in vivo) was “significantly slower and lower”, the “proportion of living animals with cancerous lesions >200 mm^3, difference to DMBA/TPA group” value ([1]; mouse, in vivo) was “did not reach statistical significance” and the “proportion of living animals having a papilloma” value ([1]; week 5, DMBA/TPA+BzATP group) was 48±12%. For the same compound, the “papillomas per animal (mean±SD)” value ([1]; week 10, DMBA/TPA+BzATP group) was 1.2±0.4, the “mean total papillomas size per animal (mean±SD)” value ([1]; week 12, DMBA/TPA+BzATP group) was 3.4±1.0 mm^3 and the “proportion of animals with cancers” value ([1]; week 14, mice co-treated with BzATP) was 50%. For the same compound, the “proportion of living animals with cancerous lesions” value ([1]; week 28, DMBA/TPA+BzATP group) was 43±9%, the “proportion of living animals with cancerous lesions >10 mm^3” value ([1]; week 28, DMBA/TPA+BzATP group) was 16±4% and the “lowering of incidence of cancerous lesions” value ([1]; week 28, co-treated with BzATP) was “about 50%”. For the same compound, the “lowering of incidence of papillomas” value ([1]; weeks 0-12, co-treated with BzATP) was “about 50%”, the “effect on number of cancerous lesions per animal” value ([1]; weeks 14-28) was “little effect” and the “combined pro-apoptotic effect of BzATP with ATP” value [2] was “non-additive”. The “increase of apoptosis by BzATP” value (hEVEC cells) was 2.5 fold, the “physical characteristics, behavior, feeding habits, weights” value (mouse skin [3]; 1.0 μg/cm^2 twice weekly) was “no noticeable changes” and the “epidermal apoptosis (nuclear morphology, TUNEL)” value (mouse skin [3]; twice weekly) was “augmented apoptosis of epidermal cells; also recorded: numerous epidermal basal/parabasal cells and epidermal hair shaft cells stained TUNEL positive”. The “histological H&E evaluation, treated versus control skin” value (mouse skin [3]; twice weekly) was “no differences”, the “visible effect on the dorsal skin” value (mouse skin [3]; twice weekly) was “no visible effect on the dorsal skin” and the “apoptosis in cancer cells relative to the respective normal cells” value [4] was 2-5 fold. The “Ki67 immunoreactivity versus control group” value (mouse skin [5]; 16 weeks) was “no significant differences in Ki67 immunoreactivity”, the “histological evaluation of dorsal skin versus control group” value (mouse skin [5]; 16 weeks) was “no differences” and the “mean serum levels of ALT (SGPT) and AST (SGOT)” value (mouse skin [5]; 16 weeks) was “in the normal range for the mouse”. The “TUNEL pixel density, hair-shaft cross sections” value (mouse skin [5]; 16 weeks, n=3) was 6.1±0.8, the “TUNEL staining mean pixel density (±SD), epidermis” value (mouse skin [5]; 16 weeks, n=3) was 5.2±0.3 and the “thinning or ulceration of the skin” value (mouse skin [5]; 16 weeks, normal mice) was “did not produce a thinning or ulceration of the skin”. The “local or systemic adverse effects of local BzATP treatment” value (mouse skin [5]; mice, applied locally on the skin) was “did not result in any local or systemic adverse events; also recorded: no adverse systemic effects; also recorded: no significant effect on the behavior of the animals, feeding habits, body weight, and liver functions; also recorded: did not produce local or systemic adverse effects”, the “behavior, feeding habits, body weights” value (mouse skin [5]; twice a week, 16 weeks, local) was “no effects were observed” and the “gross appearance of the treated skin” value (mouse skin [5]; twice a week, 16 weeks, local) was “no noticeable effect”. For the same compound, the “concentration of pre-maximal response, cytosolic calcium” value [6] was 100 to 250 µM, the “threshold concentration, cytosolic calcium” value [6] was 50 to 100 nM and the “change in cytosolic calcium” value ([6]; 100 μM BzATP, 1.2 mM Ca^2+) was “acute increase in cytosolic calcium”. The “duration of increase in cytosolic calcium” value ([6]; 100 μM BzATP, 1.2 mM Ca^2+) was “at least 6 minutes”.

— patent publication US8314068B2, “P2X7 inhibition of epithelial cancers and papillomas” (University Hospitals of Cleveland, priority 2009, dated 2012)
